# In patent US20130121961A1, “TREATMENT MODALITIES TO PREVENT OR TREAT LOSS OF CARDIOVASCULAR FUNCTION IN AGING HUMANS” (THE JOHNS HOPKINS UNIVERSITY, priority 2011, published 2013):
# “Also recorded” adds a separate entry of the source. Like-named read-outs stand apart in the source and are kept apart here.
# How the values were obtained:
# IL-10(tm/tm) mouse aorta = assay: Force-tension myography, ACH dependent vasorelaxation of phenylephrine pre-constricted IL-10(tm/tm) aortic rings; format: cell-based; details: for EC50 / Emax: Mus musculus; for Effect on endothelial dependent vasorelaxation / Effect on vasoconstrictive responses to ACH: old IL-10(tm/tm) aortas
# From the text: (§1) Animals: Age-matched IL-10 deficient (IL-10(tm/tm)); B6.129P2IL10tm1Cgn/J and control mice (C576L6; WT) were obtained from Jackson Laboratories (Bar Harbor, Me., USA). IL-10(tm/tm) mice used are homozygous for the IL10tm1Cgn targeted mutation. These mice were housed in Association for Assessment and Accreditation of Laboratory Animal Care International accredited facilities and pathogen contact prevention (prophylaxis from infections, inflammatory bowel disease and early mortality) was achieved under specific pathogen-free (SPF) barrier conditions until terminal experiments were carried out. It is known that the pro-inflammatory potential achieved by the lack of IL-10 in this mouse model can be attributed to activation of TNF-α and IL-1β synthesis via IFN-γ, which is produced in massive amounts and also is important inantigen presentation and pathogen death via activation of macrophages. Animals with any signs of inflammatory/infectious disease were ruled out of the study. The study was performed at approximately 3-4 months (young) and 9 months of age or greater (old).
# (§2) Vascular endothelial function was assessed using force-tension myography. Mouse aortas were isolated and cleaned in ice-cold Krebs-Ringer-bicarbonate solution containing the following (in mM): 118.3 NaCI, 4.7 KCI, 1.6 CaCl2, 1.2 KH2 PO4, 25 NaHCO3, 1.2 MgSO4, and 11.1 dextrose. Vascular tension changes were determined as previously described (J Appl Physiol, 2000. 89(6): p. 2382-90). Briefly, one end of the aortic rings was connected to a transducer, and the other to a micromanipulator. The aorta was immersed in a bath filled with constantly oxygenated Krebs buffer at 37° C. Equal size thoracic aortic rings (2 mm) were mounted using a microscope, ensuring no damage to the smooth muscle or endothelium. The aortas were passively stretched to an optimal resting tension using the micromanipulator, after which a dose of 60 mM KCI was administered, and repeated after a wash with Krebs buffer. After these washes, the vessels were allowed to equilibrate for 20-30 min. Phenylephrine (1 μM) was administered to induce vasoconstriction. A dose-dependent response (1 nM to 10 μM), with the muscarinic agonist, ACH, was then performed. The responses were repeated in the presence of inhibitors. Relaxation responses were calculated as a percentage of tension following pre-constriction. Sigmoidal dose-response curves were fitted to data with the minimum constrained to 0.
# (§3) Vascular Studies. In ex vivo myograph experiments, measured tension represents a balance between vasorelaxant and vasoconstrictor dependent function and mediators. In phenylephrine pre-constricted isolated mouse aorta, ACH stimulates the release of endothelial factors, which mediate vasorelaxation as a result of greater relaxation than constriction.
# WT mouse aorta = assay: Force-tension myography, ACH dependent vasorelaxation of phenylephrine pre-constricted WT aortic rings; format: cell-based
# From the text: as §1, §2, §3
# [1] = pre-incubation with 100 nM SQ29548
# [2] = pre-incubation with 3 μM indomethacin
# [3] = pre-incubation with 5 μM nimesulide
compound,measurement,setting,value
"CC(=O)OCC[N+](C)(C)C [ACH, Acetylcholine]",EC50,"IL-10(tm/tm) mouse aorta; old IL-10(tm/tm) mice aortas, n=6, read-out: EC50 of ACH mediated vasorelaxation",39.4 nM
same,Emax,"IL-10(tm/tm) mouse aorta; old IL-10(tm/tm) mice aortas, n=6, read-out: Emax of ACH mediated vasorelaxation",30.7 ± 9.3%
same,EC50,"IL-10(tm/tm) mouse aorta; young IL-10(tm/tm) mice aortas, phenylephrine pre-constricted, read-out: EC50 of ACH dose response (vasorelaxation)",50.1 nM
same,Emax,"IL-10(tm/tm) mouse aorta; young IL-10(tm/tm) mice aortas, phenylephrine pre-constricted, read-out: Emax of ACH dose response (vasorelaxation)",71.9 ± 5.7%
same,EC50,"WT mouse aorta; old WT mice aortas, n=6, read-out: EC50 of ACH mediated vasorelaxation",251 nM
same,Emax,"WT mouse aorta; old WT mice aortas, n=6, read-out: Emax of ACH mediated vasorelaxation",98.5 ± 14.1%
same,EC50,"WT mouse aorta; young WT mice aortas, phenylephrine pre-constricted, read-out: EC50 of ACH dose response (vasorelaxation)",126 nM
same,Emax,"WT mouse aorta; young WT mice aortas, phenylephrine pre-constricted, read-out: Emax of ACH dose response (vasorelaxation)",80.9 ± 4.6%
O=C(O)CCC/C=C\C[C@@H]1[C@H](CNNC(=O)Nc2ccccc2)[C@H]2CC[C@@H]1O2 [SQ29548],Effect on endothelial dependent vasorelaxation,IL-10(tm/tm) mouse aorta; [1],enhanced endothelial dependent vasorelaxation; also recorded: significantly improved endothelial dependent vasorelaxation
same,Effect on vasoconstrictive responses to ACH,IL-10(tm/tm) mouse aorta; [1],abolished the vasoconstrictive responses
COc1ccc2c(c1)c(CC(=O)O)c(C)n2C(=O)c1ccc(Cl)cc1 [indomethacin],Effect on endothelial dependent vasorelaxation,IL-10(tm/tm) mouse aorta; [2],significantly improved endothelial dependent vasorelaxation
same,Effect on vasoconstrictive responses to ACH,IL-10(tm/tm) mouse aorta; [2],abolished the vasoconstrictive responses
CS(=O)(=O)Nc1ccc([N+](=O)[O-])cc1Oc1ccccc1 [nimesulide],Effect on endothelial dependent vasorelaxation,IL-10(tm/tm) mouse aorta; [3],enhanced endothelial dependent vasorelaxation; also recorded: significantly improved endothelial dependent vasorelaxation
same,Effect on vasoconstrictive responses to ACH,IL-10(tm/tm) mouse aorta; [3],abolished the vasoconstrictive responses
